Consider one compound from patent publication US10561736B1, “Apoptosis inhibitor formulations for prevention of hearing loss” (Spiral Therapeutics, Inc., priority 2019, dated 2020).

Series [1] is described as follows: calculation of the maximum recommended starting dose (MRSD). Set-up: species or system human. The method, then:
For the calculation of the maximum recommended starting dose (MRSD) the following parameters have been considered:
The total perilymph volume in rat will be then: (Cochlearperilymph+Semicircular canalsperilymph)=STperilymph+SVperilymph+Semicircular canalsperilymph=1.04+1.59+0.9=3.53 μl
The total perilymph volume in human has been described to be 158 μl (Buckingham and Valvassori, Ann. Otol. Rhinol. Laryngol. 2001, 110(2), 113-7).
The amount of LPT99 to be injected in humans is normalized with the volumes of perilymph in rats and humans and the amount injected at the NOAEL dose as follows: LPT99 injected,rats/Volume perilymphrats=LPT99 injected,humans/Volume perilymphhumans 15 μg/3.53 μl=Y μg/158 μl; Y=671.38 μg.
MRSD should not exceed that which is calculated to deliver 1/10th of the estimated perilymph concentration of LPT99 in rat at the NOAEL, when normalized to the perilymph volume in humans. 67.14 μg ( 1/10 of 671.38 μg) is calculated as the maximum mass of LPT99 to be delivered in a volume of 200 μl. The MRSD would be then 67.14 μg/200 μl=535 μM.

The test system of a further series is rats. The experiment in a line: GLP auditory safety study after single IT administration. It counts as in vivo, rat. On the procedure: Gross observations were recorded, and selected organs were weighed.
For the next series, the target named is T1, hERG (Homo sapiens, UniProt Q12809).
T1 construct: expressed in transfected cells; host or cells: CHO
T1 sequence (Q12809 whole entry): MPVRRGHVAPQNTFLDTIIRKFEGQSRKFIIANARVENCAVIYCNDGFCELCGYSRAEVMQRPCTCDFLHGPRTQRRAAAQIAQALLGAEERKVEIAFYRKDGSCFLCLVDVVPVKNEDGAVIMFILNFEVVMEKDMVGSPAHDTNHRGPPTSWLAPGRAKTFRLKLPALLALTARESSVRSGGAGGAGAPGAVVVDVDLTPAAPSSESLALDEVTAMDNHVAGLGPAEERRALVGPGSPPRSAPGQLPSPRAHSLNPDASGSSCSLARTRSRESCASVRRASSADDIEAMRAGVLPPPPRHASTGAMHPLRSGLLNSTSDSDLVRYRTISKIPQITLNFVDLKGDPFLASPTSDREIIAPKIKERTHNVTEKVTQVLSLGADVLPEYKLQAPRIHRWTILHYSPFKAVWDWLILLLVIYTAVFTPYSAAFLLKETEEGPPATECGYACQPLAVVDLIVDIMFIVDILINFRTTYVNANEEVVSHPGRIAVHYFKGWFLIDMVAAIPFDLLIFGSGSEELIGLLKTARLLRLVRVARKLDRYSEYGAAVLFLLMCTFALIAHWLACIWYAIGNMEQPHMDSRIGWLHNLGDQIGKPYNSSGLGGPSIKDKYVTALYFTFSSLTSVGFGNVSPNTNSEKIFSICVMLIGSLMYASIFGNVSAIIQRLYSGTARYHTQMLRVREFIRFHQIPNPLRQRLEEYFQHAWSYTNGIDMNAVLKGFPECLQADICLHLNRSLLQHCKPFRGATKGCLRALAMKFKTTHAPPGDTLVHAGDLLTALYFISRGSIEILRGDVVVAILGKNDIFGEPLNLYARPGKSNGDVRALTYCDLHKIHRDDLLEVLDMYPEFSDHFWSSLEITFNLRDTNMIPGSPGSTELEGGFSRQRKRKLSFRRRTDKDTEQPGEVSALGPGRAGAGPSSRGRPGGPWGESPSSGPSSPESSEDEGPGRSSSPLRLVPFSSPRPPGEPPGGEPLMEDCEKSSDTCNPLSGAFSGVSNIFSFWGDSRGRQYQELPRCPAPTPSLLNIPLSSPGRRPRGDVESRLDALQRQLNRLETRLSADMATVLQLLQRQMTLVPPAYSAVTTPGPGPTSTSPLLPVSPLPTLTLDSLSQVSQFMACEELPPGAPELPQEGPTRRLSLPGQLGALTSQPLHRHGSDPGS
The experiment in a line: hERG automated patch clamp assay in hERG-CHO cells. It is filed as cell-based. From the text: The potential cardiotoxicity of LPT99 was investigated in an assay using the hERG-CHO cells transfected with the automated patch clamp assay.

Structures are written as SMILES.

A word on the IC50: it is the concentration that inhibits the measured activity by half. A low value points to higher potency. In the case of `COc1ccc2[nH]cc(CCNC(=O)CC3C(=O)N(CCc4ccc(Cl)cc4Cl)CC(=O)N3CCc3cccs3)c2c1` (centres unmarked) [LPT99, 2-(4-(2,4-dichlorophenethyl)-3,6-dioxo-1-(2-(thiophen-2-yl)ethyl)piperazin-2-yl)-N-(2-(5-methoxy-1H-indol-3-yl)ethyl)acetamide], in series [1] (human), the MRSD is 535 µM. For the same compound, the “maximum mass of LPT99 to be delivered (1/10 of NOAEL equivalent)” value in series [1] (in a volume of 200 μl) is 67.14 µg. In addition, in series [1] (rat 3.53 μl vs human 158 μl perilymph), the “amount of LPT99 to be injected in humans normalized by perilymph volume at the NOAEL” value is 671.38 µg. The “tolerability of single IT dose” value in the series on rats (rat, 200, 400, or 797 μM, 30 μL per ear) was “generally well tolerated”. Further, the “mass of injected LPT99 at the no observed adverse effect level (NOAEL)” value in the series on rats (rat, IT, 30 μl of 797 μM) was 15 µg. In the series on rats (rat, in vivo), the “auditory brainstem response (hearing loss)” value is on record as “no reliable evidence of test-article-related hearing loss”; the “cytocochleogram (hair cell loss)” value is “no reliable evidence of test-article-related hair cell loss”; the “otoscopic examination of the tympanic membranes (erythema, edema, wounds)” value is “no statistically significant changes in erythema, edema, or wounds”. The “mortalities, clinical abnormalities, body weight, food intake, clinical pathologies” value with rats (rat, single bilateral IT 30 μL per ear, 14-day study) is “no LPT99- or gentamicin-related mortalities”. The “safety margin (hERG IC50 vs plasma detection limit 3.2 nM)” value on hERG was above 1063. This compound also yielded an IC50 against hERG (hERG-CHO cells, automated patch clamp) of 3.4 µM.
